These results are taken from paper PMC7026418, “The kinase polypharmacology landscape of clinical PARP inhibitors” (Scientific Reports, 2020).

Some targets named below: WNK3 (Homo sapiens, UniProt Q9BYP7); ACVR2A (Homo sapiens, UniProt P27037); CLK4 (Homo sapiens, UniProt Q9HAZ1); SRPK3 (Homo sapiens, UniProt Q9UPE1); INSR (Homo sapiens, UniProt P06213); EPHA4 (Homo sapiens, UniProt P54764); ERBB3 (Homo sapiens, UniProt P21860); LIMK2 (Homo sapiens, UniProt P53671).
What all share (test): biochemical
Common to all, as to set-up: DiscoveRx KINOMEscan active site-directed competition binding; percent of control kinase bound to immobilised ligand

In the next assay the target is T1, YANK3 (Homo sapiens, UniProt Q86UX6).
T1 construct: gene STK32C

Assay [1] has as its target T2, ABL1(F317I)-phosphorylated (Homo sapiens, UniProt P00519, F317I).
T2 construct: phosphorylated

Another assay concerns the target T3, CTK (Homo sapiens, UniProt P42679).
T3 construct: gene MATK
T3 sequence (P42679 1-507): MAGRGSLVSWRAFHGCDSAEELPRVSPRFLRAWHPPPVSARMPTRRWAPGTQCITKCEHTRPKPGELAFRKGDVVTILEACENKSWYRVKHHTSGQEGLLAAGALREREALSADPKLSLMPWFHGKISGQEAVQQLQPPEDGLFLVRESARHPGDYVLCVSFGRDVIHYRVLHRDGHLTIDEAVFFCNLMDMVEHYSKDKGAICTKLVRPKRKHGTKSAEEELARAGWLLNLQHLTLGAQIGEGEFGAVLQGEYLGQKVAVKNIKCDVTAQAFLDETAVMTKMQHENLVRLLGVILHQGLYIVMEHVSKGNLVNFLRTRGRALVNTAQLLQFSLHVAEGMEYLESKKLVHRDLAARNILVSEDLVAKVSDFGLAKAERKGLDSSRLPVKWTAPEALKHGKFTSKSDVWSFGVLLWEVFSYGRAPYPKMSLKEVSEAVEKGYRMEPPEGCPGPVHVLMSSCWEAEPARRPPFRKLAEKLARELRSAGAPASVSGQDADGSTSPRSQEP

The target of assay [2] is T4, RSK3(Kin.Dom.1-N-terminal) (Homo sapiens, UniProt Q15349).
T4 construct: gene RPS6KA2; Kin.Dom.1-N-terminal

The next assay addresses T5, MAPKAPK5 (Homo sapiens, UniProt Q8IW41).
T5 sequence (Q8IW41 1-473): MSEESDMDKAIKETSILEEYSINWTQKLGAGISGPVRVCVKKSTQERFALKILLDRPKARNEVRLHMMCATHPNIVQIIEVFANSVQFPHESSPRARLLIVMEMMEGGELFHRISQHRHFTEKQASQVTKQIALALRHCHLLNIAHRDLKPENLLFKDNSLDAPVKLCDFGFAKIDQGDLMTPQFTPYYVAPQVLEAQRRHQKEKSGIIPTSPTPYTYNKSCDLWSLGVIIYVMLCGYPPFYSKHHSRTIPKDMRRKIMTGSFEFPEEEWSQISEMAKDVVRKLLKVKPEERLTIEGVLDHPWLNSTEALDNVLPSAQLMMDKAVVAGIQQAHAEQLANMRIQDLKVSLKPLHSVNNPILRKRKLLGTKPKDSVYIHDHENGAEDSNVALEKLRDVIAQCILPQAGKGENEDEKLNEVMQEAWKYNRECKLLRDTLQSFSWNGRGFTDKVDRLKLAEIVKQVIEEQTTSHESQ

The target in another assay is T6, AURKA (Homo sapiens, UniProt O14965).
T6 sequence (O14965 1-403): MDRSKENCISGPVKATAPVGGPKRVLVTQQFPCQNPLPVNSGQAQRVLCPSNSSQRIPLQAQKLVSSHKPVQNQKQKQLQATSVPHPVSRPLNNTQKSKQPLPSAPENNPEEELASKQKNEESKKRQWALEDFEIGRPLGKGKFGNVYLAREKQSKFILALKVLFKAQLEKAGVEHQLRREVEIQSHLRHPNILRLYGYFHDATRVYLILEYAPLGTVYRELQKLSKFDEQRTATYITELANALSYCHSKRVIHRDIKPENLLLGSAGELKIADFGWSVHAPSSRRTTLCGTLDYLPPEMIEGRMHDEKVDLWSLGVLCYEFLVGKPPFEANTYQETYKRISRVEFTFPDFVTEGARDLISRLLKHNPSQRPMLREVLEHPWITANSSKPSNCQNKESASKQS

Setting [3] is: read-out: Rucaparib / %Ctrl @ 10000nM, binding competition, % of control.
[4] abbreviates: read-out: Talazoparib (BMN 673) / %Ctrl @ 10000nM.
The mark [5] stands for this setting: read-out: Niraparib (MK-4827) / %Ctrl @ 10000nM.
Where [6] appears, read: read-out: Olaparib / %Ctrl @ 10000nM.

Where two headings read alike, the source gives them in different places.

T2 sequence (P00519 whole entry F317I): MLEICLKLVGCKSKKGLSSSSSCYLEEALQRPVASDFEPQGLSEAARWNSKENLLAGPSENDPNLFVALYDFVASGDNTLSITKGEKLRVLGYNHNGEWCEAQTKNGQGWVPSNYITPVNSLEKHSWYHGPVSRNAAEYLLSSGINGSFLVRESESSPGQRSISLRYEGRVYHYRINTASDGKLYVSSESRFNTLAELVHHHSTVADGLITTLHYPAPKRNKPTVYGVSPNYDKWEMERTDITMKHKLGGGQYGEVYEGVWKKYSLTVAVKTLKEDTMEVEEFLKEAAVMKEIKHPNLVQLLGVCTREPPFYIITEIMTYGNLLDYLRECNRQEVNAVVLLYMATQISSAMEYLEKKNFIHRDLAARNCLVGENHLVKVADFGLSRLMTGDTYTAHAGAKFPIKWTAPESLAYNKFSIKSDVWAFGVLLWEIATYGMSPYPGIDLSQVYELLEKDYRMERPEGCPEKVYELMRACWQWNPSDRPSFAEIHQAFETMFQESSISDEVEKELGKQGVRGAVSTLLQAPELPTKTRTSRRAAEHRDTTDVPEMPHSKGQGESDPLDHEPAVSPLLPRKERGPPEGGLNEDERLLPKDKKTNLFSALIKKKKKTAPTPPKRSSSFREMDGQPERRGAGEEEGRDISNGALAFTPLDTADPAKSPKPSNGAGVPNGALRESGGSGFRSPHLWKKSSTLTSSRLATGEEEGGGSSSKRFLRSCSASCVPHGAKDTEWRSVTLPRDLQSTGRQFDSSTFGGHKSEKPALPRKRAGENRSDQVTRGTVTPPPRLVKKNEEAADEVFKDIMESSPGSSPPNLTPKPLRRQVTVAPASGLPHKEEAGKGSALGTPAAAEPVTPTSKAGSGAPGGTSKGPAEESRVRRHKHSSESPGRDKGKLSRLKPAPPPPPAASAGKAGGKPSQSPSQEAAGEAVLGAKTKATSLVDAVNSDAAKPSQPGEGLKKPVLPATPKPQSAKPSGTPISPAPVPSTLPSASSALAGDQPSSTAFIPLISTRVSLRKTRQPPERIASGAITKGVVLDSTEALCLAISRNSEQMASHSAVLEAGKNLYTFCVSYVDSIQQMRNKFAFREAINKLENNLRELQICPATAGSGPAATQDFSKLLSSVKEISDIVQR
Chain of ACVR2A (P27037 whole entry): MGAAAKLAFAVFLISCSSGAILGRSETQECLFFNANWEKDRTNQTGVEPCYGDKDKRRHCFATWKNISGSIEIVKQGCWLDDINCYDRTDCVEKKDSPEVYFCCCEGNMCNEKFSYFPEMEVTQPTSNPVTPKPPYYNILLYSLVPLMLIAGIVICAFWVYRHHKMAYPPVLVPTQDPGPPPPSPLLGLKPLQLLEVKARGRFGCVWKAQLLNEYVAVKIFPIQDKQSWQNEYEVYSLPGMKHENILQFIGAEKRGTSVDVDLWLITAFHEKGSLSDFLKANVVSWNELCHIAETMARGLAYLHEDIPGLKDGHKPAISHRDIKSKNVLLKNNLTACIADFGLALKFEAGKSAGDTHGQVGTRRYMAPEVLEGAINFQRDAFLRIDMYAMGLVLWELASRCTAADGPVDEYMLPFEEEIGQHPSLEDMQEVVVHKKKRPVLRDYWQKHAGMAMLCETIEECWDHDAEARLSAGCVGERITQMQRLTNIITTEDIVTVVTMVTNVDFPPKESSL
Chain of WNK3 (Q9BYP7 whole entry): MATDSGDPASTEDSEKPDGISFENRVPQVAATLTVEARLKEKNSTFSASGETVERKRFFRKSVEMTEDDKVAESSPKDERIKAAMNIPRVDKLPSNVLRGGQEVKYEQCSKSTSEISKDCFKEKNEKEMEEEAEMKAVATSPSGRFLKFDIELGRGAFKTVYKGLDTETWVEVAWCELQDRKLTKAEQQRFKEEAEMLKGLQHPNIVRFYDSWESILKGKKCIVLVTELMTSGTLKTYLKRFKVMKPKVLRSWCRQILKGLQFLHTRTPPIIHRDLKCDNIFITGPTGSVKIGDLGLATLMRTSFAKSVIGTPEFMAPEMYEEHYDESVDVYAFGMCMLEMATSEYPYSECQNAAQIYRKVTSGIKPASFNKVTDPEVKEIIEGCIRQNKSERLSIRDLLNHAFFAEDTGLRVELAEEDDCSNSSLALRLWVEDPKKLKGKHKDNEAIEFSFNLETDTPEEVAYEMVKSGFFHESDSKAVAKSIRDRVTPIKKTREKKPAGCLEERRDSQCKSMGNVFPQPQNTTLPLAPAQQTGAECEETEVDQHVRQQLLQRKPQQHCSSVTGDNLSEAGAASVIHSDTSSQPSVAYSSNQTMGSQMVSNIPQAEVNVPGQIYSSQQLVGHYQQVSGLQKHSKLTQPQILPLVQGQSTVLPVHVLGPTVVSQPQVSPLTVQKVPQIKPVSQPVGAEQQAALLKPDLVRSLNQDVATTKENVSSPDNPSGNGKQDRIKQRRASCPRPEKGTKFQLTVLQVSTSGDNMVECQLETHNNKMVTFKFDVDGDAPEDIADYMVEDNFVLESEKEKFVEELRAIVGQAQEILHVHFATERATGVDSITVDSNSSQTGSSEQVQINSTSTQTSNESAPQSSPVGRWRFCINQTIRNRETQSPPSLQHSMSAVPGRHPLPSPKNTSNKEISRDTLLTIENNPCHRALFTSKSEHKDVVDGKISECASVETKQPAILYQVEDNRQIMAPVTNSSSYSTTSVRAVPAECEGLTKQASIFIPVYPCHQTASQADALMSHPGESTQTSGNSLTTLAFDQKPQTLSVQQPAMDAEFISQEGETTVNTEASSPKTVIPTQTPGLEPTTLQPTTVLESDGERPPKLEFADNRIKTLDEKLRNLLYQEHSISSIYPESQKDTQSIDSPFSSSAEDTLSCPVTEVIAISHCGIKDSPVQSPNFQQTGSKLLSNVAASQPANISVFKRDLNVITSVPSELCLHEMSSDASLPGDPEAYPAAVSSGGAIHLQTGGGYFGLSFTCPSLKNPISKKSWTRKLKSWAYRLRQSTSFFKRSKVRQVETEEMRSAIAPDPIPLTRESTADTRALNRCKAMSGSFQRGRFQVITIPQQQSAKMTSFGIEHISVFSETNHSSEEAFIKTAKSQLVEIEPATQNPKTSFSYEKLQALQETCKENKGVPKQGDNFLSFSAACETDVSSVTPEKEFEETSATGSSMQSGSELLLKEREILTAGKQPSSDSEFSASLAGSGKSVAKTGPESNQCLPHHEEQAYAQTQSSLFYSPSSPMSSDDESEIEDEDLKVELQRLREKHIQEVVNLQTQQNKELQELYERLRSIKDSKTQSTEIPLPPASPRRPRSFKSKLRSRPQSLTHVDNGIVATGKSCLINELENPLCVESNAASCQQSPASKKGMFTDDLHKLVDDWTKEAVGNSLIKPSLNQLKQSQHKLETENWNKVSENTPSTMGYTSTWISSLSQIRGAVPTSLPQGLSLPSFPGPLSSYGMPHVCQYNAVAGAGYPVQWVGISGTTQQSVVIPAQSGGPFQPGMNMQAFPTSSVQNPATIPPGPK
Chain of SRPK3 (Q9UPE1 whole entry): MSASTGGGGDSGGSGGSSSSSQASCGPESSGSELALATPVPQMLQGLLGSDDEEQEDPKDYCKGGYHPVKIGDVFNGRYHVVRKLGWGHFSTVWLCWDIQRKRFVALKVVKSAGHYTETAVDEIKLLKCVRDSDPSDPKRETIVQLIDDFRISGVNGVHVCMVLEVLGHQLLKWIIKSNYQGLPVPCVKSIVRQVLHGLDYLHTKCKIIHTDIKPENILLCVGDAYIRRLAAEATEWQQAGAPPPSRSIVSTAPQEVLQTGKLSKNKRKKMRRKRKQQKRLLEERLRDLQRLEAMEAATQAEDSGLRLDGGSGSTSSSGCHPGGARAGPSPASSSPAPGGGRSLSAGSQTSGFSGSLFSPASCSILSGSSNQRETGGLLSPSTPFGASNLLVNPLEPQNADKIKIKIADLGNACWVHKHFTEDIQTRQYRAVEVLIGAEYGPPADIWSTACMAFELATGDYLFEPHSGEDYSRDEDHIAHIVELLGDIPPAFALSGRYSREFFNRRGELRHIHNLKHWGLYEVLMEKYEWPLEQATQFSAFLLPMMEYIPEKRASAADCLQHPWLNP
Chain of EPHA4 (P54764 whole entry): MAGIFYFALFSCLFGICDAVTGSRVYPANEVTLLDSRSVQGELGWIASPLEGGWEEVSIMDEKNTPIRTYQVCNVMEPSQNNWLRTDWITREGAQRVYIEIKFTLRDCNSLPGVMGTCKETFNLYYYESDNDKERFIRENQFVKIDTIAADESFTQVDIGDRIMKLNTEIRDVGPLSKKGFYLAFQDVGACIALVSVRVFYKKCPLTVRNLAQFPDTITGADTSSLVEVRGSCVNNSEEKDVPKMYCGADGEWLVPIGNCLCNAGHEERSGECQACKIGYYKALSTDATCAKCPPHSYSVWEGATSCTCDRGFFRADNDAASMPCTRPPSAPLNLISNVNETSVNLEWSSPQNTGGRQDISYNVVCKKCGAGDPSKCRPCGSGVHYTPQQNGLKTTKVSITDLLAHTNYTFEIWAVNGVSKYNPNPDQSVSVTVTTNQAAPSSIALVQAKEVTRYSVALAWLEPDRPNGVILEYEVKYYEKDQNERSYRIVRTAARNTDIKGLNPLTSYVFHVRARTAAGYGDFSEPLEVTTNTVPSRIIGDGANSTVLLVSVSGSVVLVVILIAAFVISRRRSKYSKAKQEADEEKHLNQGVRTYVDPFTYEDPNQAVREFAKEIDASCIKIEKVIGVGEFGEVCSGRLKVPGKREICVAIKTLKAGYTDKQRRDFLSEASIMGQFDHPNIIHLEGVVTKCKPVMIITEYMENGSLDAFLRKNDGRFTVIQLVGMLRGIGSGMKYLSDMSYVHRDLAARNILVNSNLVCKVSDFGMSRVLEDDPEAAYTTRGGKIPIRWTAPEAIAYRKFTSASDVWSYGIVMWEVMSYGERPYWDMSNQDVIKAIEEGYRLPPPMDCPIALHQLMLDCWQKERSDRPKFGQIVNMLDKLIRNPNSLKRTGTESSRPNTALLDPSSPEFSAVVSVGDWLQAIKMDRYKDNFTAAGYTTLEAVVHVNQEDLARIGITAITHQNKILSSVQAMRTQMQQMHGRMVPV

Take `CNCc1ccc(-c2[nH]c3cc(F)cc4c3c2CCNC4=O)cc1` [Rucaparib]: the percent of control binding at 10 µM was determined as 72% at YANK3 (setting [3]); 86% at WNK3 (setting [3]); 100% at ACVR2A (setting [3]); 40% on CLK4 (setting [3]); 92% in [1] (setting [3]); 85% on SRPK3 (setting [3]). The percent of control binding at 10 µM on CTK (setting [3]) was determined as 76%; at INSR (setting [3]), 86%; at EPHA4 (setting [3]), 97%; in [2] (setting [3]), 99%; on MAPKAPK5 (setting [3]), 88%; at ERBB3 (setting [3]), 74%. Also, the percent of control binding at 10 µM on AURKA (setting [3]) was 75%; on LIMK2 (setting [3]) it was 96%.

`Cn1ncnc1[C@H]1c2n[nH]c(=O)c3cc(F)cc(c23)N[C@@H]1c1ccc(F)cc1` [Talazoparib]: the percent of control binding at 10 µM was found to be 85% on YANK3 (setting [4]); 100% on WNK3 (setting [4]); 100% at ACVR2A (setting [4]); 100% on CLK4 (setting [4]); 99% in assay [1] (setting [4]); 100% on SRPK3 (setting [4]). In addition, the percent of control binding at 10 µM at CTK (setting [4]) came to 78%; at INSR (setting [4]) it was 62%; on EPHA4 (setting [4]), 100%; in [2] (setting [4]), 84%; on MAPKAPK5 (setting [4]), 93%; on ERBB3 (setting [4]), 100%. Moreover, the percent of control binding at 10 µM turned out to be 84% on AURKA (setting [4]) and 100% at LIMK2 (setting [4]).

For `NC(=O)c1cccc2cn(-c3ccc([C@@H]4CCCNC4)cc3)nc12` [Niraparib], the percent of control binding at 10 µM at YANK3 (setting [5]) turned out to be 86%; at WNK3 (setting [5]) it was 100%; at ACVR2A (setting [5]), 99%; at CLK4 (setting [5]), 52%; in assay [1] (setting [5]) it was 89%; on SRPK3 (setting [5]) it was 71%. Further, the percent of control binding at 10 µM on CTK (setting [5]) turned out to be 100%; at INSR (setting [5]) it was 86%; on EPHA4 (setting [5]), 83%; in assay [2] (setting [5]), 74%; on MAPKAPK5 (setting [5]), 86%; on ERBB3 (setting [5]), 100%. The percent of control binding at 10 µM on AURKA (setting [5]) turned out to be 25%; on LIMK2 (setting [5]) it was 91%.

As for `O=C(c1cc(Cc2n[nH]c(=O)c3ccccc23)ccc1F)N1CCN(C(=O)C2CC2)CC1` [Olaparib], the percent of control binding at 10 µM is 83% on YANK3 (setting [6]); 88% at WNK3 (setting [6]); 95% on ACVR2A (setting [6]); 92% on CLK4 (setting [6]); 86% in [1] (setting [6]); 84% at SRPK3 (setting [6]). The percent of control binding at 10 µM at CTK (setting [6]) came out at 96%; at INSR (setting [6]), 85%; at EPHA4 (setting [6]), 92%; in assay [2] (setting [6]) it was 97%; at MAPKAPK5 (setting [6]) it was 87%; on ERBB3 (setting [6]), 83%. In addition, the values for the percent of control binding at 10 µM on AURKA (setting [6]) and at LIMK2 (setting [6]) were 91% and 100%, respectively.
